Test results: US4254110A, “Pentofuranosyl anthracyclines, intermediates in and method for their preparation and compositions and use thereof” (Farmitalia Carlo Erba S.p.A., priority 1979, dated 1981)
Values after ≈ are worked out from the molar mass of the structure shown. Counter-ions that a name gives are not always drawn. Like-named read-outs stand apart in the source and are kept apart here.

Tests used:
P-388 leukemia = assay: Antitumor activity against P-388 leukemia in mice; format: in vivo; details: for antitumor activity compared with daunorubicin and doxorubicin: at the tolerated doses (100~200 mg/Kg); for Toxic Deaths: macroscopic autoptic findings
Experimental: The antitumor activity of the same compounds was tested against P-388 leukemia in mice.
^(a) Mice were treated i.p. on day 1 after tumor cell inoculation.
^(b) Evaluated on the basis of macroscopic autoptic findings.
^(c) Injected as a water solution.
^(d) Injection as a 5% aqueous ethanol suspension.
^(e) Injected as a 1:9 Tween 80 : water suspension.

HeLa cells = assay: Cytotoxic activity against HeLa cells in vitro (effect on HeLa cells viability); format: cell-based; details: Homo sapiens, read-out: ID50 (effect on HeLa cells viability in vitro)
Experimental: The cytotoxic activity of several of the new compounds according to the invention were tested against HeLa cells in vitro (time of exposure to the compounds=24 hours) in comparison with daunorubicin and doxorubicin.

[1] = dose 50 mg/Kg i.p. on day 1, III-a as 5% aqueous ethanol suspension, others as 1:9 Tween 80:water suspension
[2] = dose 100 mg/Kg i.p. on day 1, III-a as 5% aqueous ethanol suspension, others as 1:9 Tween 80:water suspension
[3] = dose 200 mg/Kg i.p. on day 1, III-a as 5% aqueous ethanol suspension, others as 1:9 Tween 80:water suspension
[4] = dose 4.4 mg/Kg i.p. on day 1, water solution
[5] = dose 4.4 mg/Kg i.p. on day 1 after tumor cell inoculation, water solution
[6] = dose 6.6 mg/Kg i.p. on day 1, water solution
[7] = dose 6.6 mg/Kg i.p. on day 1 after tumor cell inoculation, water solution

Row | Compound | antitumor activity compared with daunorubicin and doxorubicin (P-388 leukemia) | T/C % (P-388 leukemia; [1]) [%] | Toxic Deaths (P-388 leukemia; [1]) | T/C % (P-388 leukemia; [2]) [%] | Toxic Deaths (P-388 leukemia; [2]) | T/C % (P-388 leukemia; [3]) [%] | Toxic Deaths (P-388 leukemia; [3]) | IC50 (HeLa cells; HeLa cells, 24 hours exposure) [ng/mL] | Toxic Deaths (P-388 leukemia; [4]) | T/C % (P-388 leukemia; [5]) [%] | Toxic Deaths (P-388 leukemia; [6]) | T/C % (P-388 leukemia; [7]) [%] | Toxic Deaths (P-388 leukemia; dose 10.0 mg/Kg i.p. on day 1, water solution) | T/C % (P-388 leukemia; dose 10.0 mg/Kg i.p. on day 1 after tumor cell inoculation, water solution) [%] | IC50 (HeLa cells; HeLa, 24 h) [ng/mL] | Toxic Deaths (P-388 leukemia; dose 2.9 mg/Kg i.p. on day 1, water solution) | T/C % (P-388 leukemia; dose 2.9 mg/Kg i.p. on day 1 after tumor cell inoculation, water solution) [%]
1 | COc1cccc2c1C(=O)c1c(O)c3c(c(O)c1C2=O)C[C@@](O)(C(C)=O)C[C@@H]3O[C@H]1CC(CO)[C@H](C)O1 (stereo partly drawn) [Compound IV (R3 = H), 7-O-(2,3,5-trideoxy-3-C-hydroxymethyl-α-L-threopentofuranosyl)-daunomycinone] | higher than or comparable to those of both daunorubicin and doxorubicin | 130 | 0/7 | 160 | 0/6 | 220 | 0/5 | 1.6 (≈ 0.00312 µM) |  |  |  |  |  |  |  |  | 
2 | COc1cccc2c1C(=O)c1c(O)c3c(c(O)c1C2=O)C[C@@](O)(C(=O)CO)C[C@@H]3O[C@H]1C[C@H](N)[C@H](O)[C@H](C)O1 [Doxorubicin . HCl, doxorubicin, reference compound] |  |  |  |  |  |  |  |  | 0/17 | 195 | 0/17 | 206 | 4/18 | 244 | 10 |  | 
3 | COc1cccc2c1C(=O)c1c(O)c3c(c(O)c1C2=O)C[C@@](O)(C(C)=O)C[C@@H]3O[C@H]1CC(C=O)[C@H](C)O1 (single isomer, unassigned) [Compound III-b] |  | 110 | 0/10 | 110 | 0/10 | 125 | 0/9 | 1.75 (≈ 0.00343 µM) |  |  |  |  |  |  |  |  | 
4 | COc1cccc2c1C(=O)c1c(O)c3c(c(O)c1C2=O)C[C@@](O)(C(C)=O)C[C@@H]3O[C@H]1CC(C=O)[C@H](C)O1 (stereo partly drawn) [Compound III-a, 7-O-(2,3,5-trideoxy-3-C-formyl-α-L-threopentofuranosyl)-daunomycinone] | higher than or comparable to those of both daunorubicin and doxorubicin | 168 | 0/8 | 163 | 0/5 | 190 | 2/5 | 320 (≈ 0.627 µM) |  |  |  |  |  |  |  |  | 
5 | COc1cccc2c1C(=O)c1c(O)c3c(c(O)c1C2=O)C[C@@](O)(C(=O)CO)C[C@@H]3O[C@H]1CC(C=O)[C@H](C)O1 (stereo partly drawn) [III (R3 =OH)] | higher than or comparable to those of both daunorubicin and doxorubicin |  |  |  |  |  |  |  |  |  |  |  |  |  |  |  | 
6 | COc1cccc2c1C(=O)c1c(O)c3c(c(O)c1C2=O)C[C@@](O)(C(=O)CO)C[C@@H]3O[C@H]1CC(C=O)[C@H](C)O1 (stereo partly drawn) [Compound III (R3 = OH), 7-O-(2,3,5-trideoxy-3-C-formyl-α-pentofuranosyl)-adriamycinone] |  | 163 | 0/9 | 190 | 0/9 | 231 | 1/7 | 140 (≈ 0.266 µM) |  |  |  |  |  |  |  |  | 
7 | COc1cccc2c1C(=O)c1c(O)c3c(c(O)c1C2=O)C[C@@](O)(C(C)=O)C[C@@H]3O[C@H]1C[C@H](N)[C@H](O)[C@H](C)O1 [Daunorubicin . HCl, daunorubicin, reference compound] |  |  |  |  |  |  |  |  | 0/38 | 167 | 19/38 | 157 |  |  | 7.4 | 0/37 | 169
